Patent US6770303B1, “Use of antifungal and/or antibacterial and/or antiviral compounds” (priority 1998, dated 2004)
Entries after “also recorded” stand apart in the source; their conditions may differ. Like-named read-outs stand apart in the source and are kept apart here.

Assays:
[1] = tested on: phenylalanine ammonia lyase (PAL); experiment: PAL activity in tobacco cell cultures after potentiator pretreatment and elicitation; assay type: cell-based, Nicotiana tabacum
Procedure: Measurement of the activity of PAL (phenylalanine ammonia lyase): key enzyme in the phenylpropanoid pathway and more particularly in the lignification involved in defense reactions in plants (most particularly in monocotyledon plants).
(§1) The cell suspensions used are suspensions of Nicotiana tabacum BY (bright yellow) obtained from Washington State University (Pullman, USA). They are cultured in the dark, at 24° C. with agitation (120 rpm) and subcultured every 7 days by transferring 10 ml of culture into 70 ml of fresh medium.
(§2) The cells are pretreated 5 days after subculturing (end of the exponential growth phase) and elicited on the 6th day. Two hours before pretreatment, 10 ml of cells are transferred into 25 ml conical flasks. For the phenylalanine ammonia lyase (PAL) and lipoxygenase (LOX) activity analyses and the determination of the salicylic acid (SA), the cells are harvested at the desired time by filtration on Whatman 3 M paper, frozen in liquid nitrogen and stored at −80° C. until the analysis.
The cells (0.5 g) are ground in 0.1 M pH 8.8 borate buffer in the presence of active charcoal and quartz. The grinding ratio is 1/5 (w/v). After centrifugation, 100 μl of cell extract are incubated for 1 h at 37° C. in the presence of 200 μl of 0.1 M pH 8.8 borate buffer and 100 μl of a mixture of 0.1 M pH 8.8 borate buffer and 300 μM L-phenylalanine (labelled and cold mixture); the final solution has a specific activity of 810,000 cpm/ml.
The reaction is quenched by adding a few drops of 9 N H2SO4. 2 ml of H2O are added. The reaction products are extracted by adding 2 ml of an ether/cyclohexane mixture (1/1, v/v). Since the phenylalanine is insoluble in this mixture, the reaction is counted on 1 ml in the presence of “multi-purpose” scintillation liquid.
(§3) In all cases, the pretreatment with the potentiator is carried out 18 hours before the elicitor treatment.
The samples for analysing the physiological effects are taken 4 hours, 12 hours or 24 hours after elicitation. The controls corresponding to a potentiation alone or an elicitation alone are systematically present for each sample taken.

salicylic acid (SA) = experiment: Salicylic acid (SA) accumulation in tobacco cell cultures; assay type: cell-based, Nicotiana tabacum
Procedure: The samples (0.5 g) of tobacco cells or leaves are ground in liquid nitrogen and grinding is then continued in the presence of 0.8 ml of 90% methanol. A known amount of ^14C-labelled SA (1 nCi, 54 mCi/mol, Sigma) is then added in order to estimate the yield for the recovery of the endogenous SA. The amount of labelled SA added is less than the detection threshold for the analysis. […]
The samples are brought to pH 2 by addition of 2 M HCl and are then heated at 80° C. for one hour. […] 20 ml of this mixture, to which are added 3 ml of scintillation liquid (Ready Gel, Beckmann), are taken for counting of the residual radioactivity, which allows calculation of the SA recovery yield. The contents of total SA determined correspond to the sum of the SA contents in free form and of the SA contents in conjugated form, the SA being released during the hydrolysis.
The elution is programmed on a Waters HPLC system in an isocratic system for 10 min. […] The SA is quantified by fluorometry (λ excitation=315 nm, λ emission=405 nm). […] The amounts of SA injected are calculated by means of comparing the area of the peaks corresponding to SA with that of the standard molecule injected. The SA contents in the samples are then calculated, taking the recovery yield into account. […]

lipoxygenase (LOX) = experiment: LOX activity in tobacco cell cultures after potentiator pretreatment and elicitation; assay type: cell-based, Nicotiana tabacum; details: for Effect on LOX activity, potentiator in itself / LOX activity, potentiator applied alone: no elicitor; for Effect on LOX activity, potentiator in itself: conclusion of Example 1; for LOX activity relative to the corresponding control: 18 h pretreatment
Procedure: Measurement of the activity of LOX (lipoxygenase) which is a key enzyme in the synthesis of jasmonic acid, another signal molecule.
as §1, §2
The cells (250 mg) are ground in 0.5 ml of extraction buffer in the presence of quartz.
The ground mixture is centrifuged for 15 min at 4° C. and 13,000 rpm. 2.87 ml of 0.1 M pH 6.8 Tris buffer are added to the cell extract, followed by 30 μl of 10 mM linolenic acid. After stirring, the change in the OD is monitored at 234 nm.
as §3
[…] The controls corresponding to a potentiation alone or an elicitation alone are systematically present for each sample taken.

tobacco cell cultures = assay type: cell-based, Nicotiana tabacum
Description: Fosetyl-Al and phosphorous acid have mainly been selected as potentiators in the biological experimentation, but, for reasons of toxicity of fosetyl-Al on tobacco cell cultures, we replaced it with fosetyl sodium in the cell tests.

Erysiphe cichoracerum = experiment: Open-field trial on powdery mildew of melon by foliar treatment; assay type: in vivo; details: Agrimer 540 1 l/ha
Procedure: Open-field Trial on Powdery Mildew (Erysiphe cichoracerum) of Melon (Cucumis melo, Rochet Variety) by Foliar Treatment.
(§4) The fungicide used is fosetyl-Al (WG applied at 1.25 kg/ha, i.e. 1000 g/ha of active material) and the algal extract (solution LC, 1 l/ha) is Agrimer 540 from the company Agrimer.
All of these products are used at a dose of 1000 g/ha and the percentage of plants attacked by the disease is determined 15 days after two treatments T1 and T2 (carried out with an interval of 7 days).

Erysiphe graminis = experiment: Open-field test on powdery mildew of wheat by foliar treatment; assay type: in vivo; details: winter wheat, fosetyl-Al 1000 g/ha a.m., Agrimer 540 1 l/ha
Procedure: Open-field Test on Powdery Mildew (Erysiphe graminis) of Wheat (Triticum aestivum, Winter Variety) by Foliar Treatment.
as §4
All these products are used at a rate of 1000 g/ha and the percentage of plants attacked (% of leaves destroyed) by the disease is determined, on the one hand on a foliar stage treated semi-curatively (reading taken 22 days after the treatment T), and on the other hand on a foliar stage treated curatively (reading taken 27 days after the treatment T).

[2] = cells potentiated and elicited with a pectin oligomer, compared with the other conditions

## CSC(=O)c1cccc2nnsc12 [BTH, reference compound]
[1]; [2]
  PAL activity of potentiated and elicited cells (FIG. 21): much higher

## CCO[PH](=O)O [fosetyl-Na]
Salicylic acid (SA); no elicitor, conclusion of Example 1
  Effect on synthesis of SA, potentiator in itself: do not in themselves have any effect
[1]; 5 mM conditioning 18 h, then 2 nM β-megaspermine (FIG. 9)
  PAL activity of pretreated cells versus unconditioned cells: always greater than that observed in the unconditioned cells
[1]; 5 mM conditioning 18 h, then 20 μg/ml pectin oligomers
  Effect of conditioning on PAL activity after elicitation: maintains the PAL activity at a high level 11 h after the elicitation
[1]; [2]
  PAL activity of potentiated and elicited cells (FIG. 21): much higher
[1]; no elicitor
  Induction of PAL activity, potentiator applied alone: No significant effect; also recorded: do not in themselves have any effect
Lipoxygenase (LOX)
  Effect on LOX activity, potentiator in itself: do not in themselves have any effect

## OP(O)O [H3PO3, phosphorous acid]
Salicylic acid (SA)
  Effect on synthesis of SA, potentiator in itself: do not in themselves have any effect
  Rate of synthesis of SA relative to unconditioned cells: large increase
[1]
  Effect of conditioning on PAL activity after elicitation: strong stimulation of the PAL activity; also recorded: greater than that observed in the unconditioned cells
  Effect of pretreatment on induction of PAL activity by the elicitor: markedly amplifies the response to the elicitor
  Induction of PAL activity, potentiator applied alone: No significant inductive effect; also recorded: do not in themselves have any effect
  PAL activity of potentiated and elicited cells (FIG. 21): much higher
  PAL activity of pretreated cells versus unconditioned cells: always greater than that observed in the unconditioned cells
  PAL activity relative to the level of the unconditioned cells: 4 times
Lipoxygenase (LOX); measured 12 h after elicitation with 2 nM β-megaspermine
  LOX activity relative to the corresponding control: about 28 times
Lipoxygenase (LOX); measured 21 h after elicitation with 10 μg/ml oligosaccharide elicitor of β-glucan type
  LOX activity relative to the corresponding control: about 4 times
Lipoxygenase (LOX); 30 h (18 h of pretreatment+12 h) after application
  LOX activity, potentiator applied alone: No inductive effect
Lipoxygenase (LOX); 39 h (18 h of pretreatment+21 h) after application
  LOX activity, potentiator applied alone: mild inductive effect
Lipoxygenase (LOX)
  Effect on LOX activity, potentiator in itself: do not in themselves have any effect

## CCO[PH](=O)O [Fosetyl-Al, fosetyl-Al]
Tobacco cell cultures
  Toxicity on tobacco cell cultures: toxicity
Erysiphe cichoracerum; T2 7 days after T1, fosetyl-Al 1000 g/ha a.m., untreated control 95.0
  percentage of plants attacked by the disease, % at T2 + 15 days: 80.0%
Erysiphe cichoracerum; fosetyl-Al 1000 g/ha a.m., untreated control 91.7
  percentage of plants attacked by the disease, % at T1 + 15 days: 80.0%
Erysiphe graminis; untreated control 91.1
  % of leaves destroyed at T + 22, semi-curative: 77.8%
Erysiphe graminis; untreated control 100
  % of leaves destroyed at T + 27, curative: 100%
